According to patent US20260374766A1, “METHODS FOR TREATING CANCER” (Antares Therapeutics, Inc., priority 2022, published 2026):
pIC50, pKd: −log10 of the molar value. Read-outs that look alike come from different tables or passages of the source.

Assays:
NUGC3 p53 Y220C = assay: Cell Proliferation Assay (CellTiter-Glo, CTG), NUGC3 p53 Y220C; type: cell-based; conditions: Homo sapiens, NUGC-3, 120 h, CellTiter-Glo, 5 days
Summary of the method: (§1)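 NClH1299 lines stably transduced with Tet-inducible p53 Y220C or R273H, plus NUGC3, were treated with compound for 5 days at 250-500 cells/well. IC50 derived from CellTiter-Glo luminescent signal after 10 min room-temperature incubation.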

p53 Y220C = p53 Y220C (Homo sapiens, UniProt P04637, Y220C); assay: Luciferase Reporter Assay (Luc), p53 response element, NClH1299 cells with inducible p53 Y220C; type: cell-based; conditions: luciferase reporter, NClH1299 inducible p53 Y220C, 6 hour; for AC50: read-out: Luc P53 Y220C AC50
Summary of the method: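 Steps: seed 5,000 cells/well; induce mutant p53 with 0.5 ug/mL doxycycline for 24 h; treat with compound 6 h; add equal volume One-Glo, shake 5 min at room temperature; measure luciferase immediately.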

H1299 p53 R273H = assay: Cell Proliferation Assay (CellTiter-Glo, CTG), H1299 p53 R273H (NClH1299-inducible p53 R273H); type: cell-based; conditions: Homo sapiens, NCI-H1299, 120 h, CellTiter-Glo, 5 days
Summary of the method: as §1

[1] = biological target: T1, p53 Y220C mutant protein (amino acid residues 94-293) (Homo sapiens, UniProt P04637, Y220C); assay: Surface Plasmon Resonance (SPR) assay, Kd_kinetic; type: binding; conditions: SPR, p53 Y220C, read-out: SPR P53 Y220C KD kinetic
T1 construct: p53 Y220C mutant protein (amino acid residues 94-293)
Summary of the method: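 Temperature held at 16 or 20 °C during Biacore 8K runs. Buffer: 50 mM Tris, pH 7.5, 100 mM NaCl, 1 mM DTT, 0.01% Brij35, 0.05% Tween-20, 1% DMSO.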

[2] = biological target: T1, p53 Y220C mutant protein (amino acid residues 94-293); assay: Thermal Shift Assay (TSA), dTM; type: binding; conditions: for ΔTm at 100 µM: 100 uM compound; for ΔTm at 10 µM: 10 uM compound
Summary of the method: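 5 μM protein + 10 μM or 100 μM cpd, 3 h, 20 °C; 20 mM HEPES pH7.4, 100 mM NaCl, 0.01% Pluronic F-127, 1% DMSO, Sypro Orange 400-fold dil. Ramp 30→50 °C, 0.03 °C/s. TM by Boltzmann two-state fit.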

H1299 p53 Y220C = assay: Cell Proliferation Assay (CellTiter-Glo, CTG), H1299 p53 Y220C (NClH1299-inducible p53 Y220C); type: cell-based; conditions: Homo sapiens, NCI-H1299, 120 h, CellTiter-Glo, 5 days
Summary of the method: as §1

[3] = 10 uM tool compound as positive control
[4] = thermal shift, read-out: TSA P53 Y220C dTM (100 uM)
[5] = thermal shift, read-out: TSA P53 Y220C dTM (10 uM)
[6] = NClH1299-inducible p53 R273H cells
[7] = p53 Y220C, read-out: TSA P53 Y220C dTM
[8] = NClH1299-inducible p53 Y220C cells

Structure (SMILES) | pIC50 (NUGC3 p53 Y220C; NUGC3 p53 Y220C) | Emax (p53 Y220C; [3]) [%] | AC50 (p53 Y220C) [nM] | pIC50 (H1299 p53 R273H; H1299 p53 R273H) | pKd ([1]; kinetic KD) | ΔTm at 100 µM [2, 4] [°C] | pIC50 (H1299 p53 Y220C; H1299 p53 Y220C) | ΔTm at 10 µM [2, 5] [°C] | pIC50 (NUGC3 p53 Y220C; NUGC3 cells) | AC50 (p53 Y220C; AC50) [nM] | Emax (p53 Y220C; Emax) [%] | pIC50 (H1299 p53 R273H; [6]) | pKd [1] | ΔTm at 10 µM [2, 7] [°C] | pIC50 (H1299 p53 Y220C; [8]) | ΔTm at 100 µM [2, 7] [°C]
CNC(=O)c1ccc(NCC#Cc2nc3c(N[C@@H]4CCN(C)C[C@@H]4F)cccn3c2CC(F)(F)F)c(Cl)c1 [Example 55, 3-chloro-4-{[3-(8-{[(3S,4R)-3-fluoro-1-methylpiperidin-4-yl]amino}-3-(2,2,2-trifluoroethyl)imidazo[1,2-a]pyridin-2-yl)prop-2-yn-1-yl]amino}-N-methylbenzamide] | 5.82 to 6.12 | > 90 | 750 to 1500 | ≤ 5.00 | 7.00 to 8.00 | ≥ 10 | 5.82 to 6.12 |  |  |  |  |  |  |  |  | 
CNC(=O)c1ccc(NCC#Cc2nc3c(N[C@H]4CN(C)CC[C@@H]4F)cccn3c2SC(F)(F)F)c(OC)c1 [Example 147] | > 6.12 | > 90 | < 750 | 5.00 to 5.10 | > 8.00 | ≥ 10 | > 6.12 | ≥ 10 |  |  |  |  |  |  |  | 
CNC(=O)c1cnc(OC)c(NCC#Cc2nc3c(N[C@@H]4CCN(C)C[C@@H]4F)cccn3c2SC(F)(F)F)c1 [Example 141] | > 6.12 | 80 to 90 | < 750 | ≤ 5.00 | > 8.00 | ≥ 10 | > 6.12 | ≥ 10 |  |  |  |  |  |  |  | 
CNC(=O)c1cnc(OC)c(NCC#Cc2nc3c(N[C@@H]4CCNC[C@@H]4F)cccn3c2SC(F)(F)F)c1 [Example 258] |  |  |  |  |  |  |  |  | > 6.12 | < 750 | 70 to 80 | ≤ 5.00 | > 8.00 | ≥ 10 | > 6.12 | 
CNC(=O)c1ccc(OC)c(NCC#Cc2nc3c(N[C@@H]4CCN(CCOC)C[C@@H]4F)cccn3c2SC(F)(F)F)c1 [Example 296] |  |  |  |  |  |  |  |  | > 6.12 | < 750 | 80 to 90 | ≤ 5.00 | > 8.00 | ≥ 10 | > 6.12 | 
CCNC(=O)c1ccc(OC)c(NCC#Cc2nc3c(N[C@@H]4CCN(C)C[C@@H]4F)nccn3c2SC(F)(F)F)c1 [Example 309] |  |  |  |  |  |  |  |  | > 6.12 | < 750 | 70 to 80 | > 5.30 | > 8.00 | ≥ 10 | > 6.12 | 
CNC(=O)c1cnc(OC)c(NCC#Cc2cc3c(N[C@@H]4CCN(C)C[C@@H]4F)nccn3c2SC(F)F)c1 [Example 327] |  |  |  |  |  |  |  |  | > 6.12 | < 750 | > 90 | ≤ 5.00 | > 8.00 | ≥ 10 | > 6.12 | 
CNC(=O)c1ccc(OC)c(NCC#Cc2nc3c(N[C@@H]4CNC[C@@H]4F)cccn3c2SC(F)(F)F)n1 [Example 172] | > 6.12 | 70 to 80 | < 750 | 5.10 to 5.30 | > 8.00 | ≥ 10 | > 6.12 | ≥ 10 |  |  |  |  |  |  |  | 
CNC(=O)c1ccc(NCC#Cc2nc3c(N[C@H]4CCC(=O)N(C)C4)cccn3c2SC(F)(F)F)c(OC)c1 [Example 187] | > 6.12 | 80 to 90 | < 750 | 5.10 to 5.30 | > 8.00 | ≥ 10 | > 6.12 | ≥ 10 |  |  |  |  |  |  |  | 
CNC(=O)c1ccc(NCC#Cc2nc3c(N[C@@H]4CCN(C)C[C@@H]4F)cccn3c2SC(F)(F)F)cn1 [Example 94, 5-{[3-(8-{[(3S,4R)-3-fluoro-1-methylpiperidin-4-yl]amino}-3-[(trifluoromethyl)sulfanyl]imidazo[1,2-a]pyridin-2-yl)prop-2-yn-1-yl]amino}-N-methylpyridine-2-carboxamide] | > 6.12 | > 90 | < 750 | ≤ 5.00 | > 8.00 | ≥ 10 | > 6.12 | ≥ 10 |  |  |  |  |  |  |  | 
CNC(=O)c1ccc(C)c(NCC#Cc2cc3c(N[C@@H]4CCN(C)C[C@@H]4F)nccn3c2SC(F)(F)F)c1 [Example 294] |  |  |  |  |  |  |  |  | > 6.12 | < 750 | > 90 | ≤ 5.00 | > 8.00 | ≥ 10 | > 6.12 | 
CNC(=O)c1ccc(NCC#Cc2nc3c(N[C@H]4C[C@@H]5CC[C@H]([C@H]4F)N5C)cccn3c2SC(F)(F)F)c(OC)c1 [Example 130] | > 6.12 | 70 to 80 | < 750 | 5.10 to 5.30 | > 8.00 | ≥ 10 | > 6.12 | ≥ 10 |  |  |  |  |  |  |  | 
CNC(=O)c1cc(OC)c(NCC#Cc2nc3c(N[C@@H]4CCN(C)C[C@@H]4F)cccn3c2SC(F)(F)F)cc1Cl [Example 121] | > 6.12 | > 90 | < 750 | 5.00 to 5.10 | > 8.00 | ≥ 10 | > 6.12 | ≥ 10 |  |  |  |  |  |  |  | 
COC(=O)N1CCC(Nc2cccn3c(CC(F)(F)F)c(C#CCNc4ccc(S(C)(=O)=O)cc4OC)nc23)CC1 [Example 116, methyl 4-[(2-{3-[(4-methanesulfonyl-2-methoxyphenyl)amino]prop-1-yn-1-yl}-3-(2,2,2-trifluoroethyl)imidazo[1,2-a]pyridin-8-yl)amino]piperidine-1-carboxylate] | < 5.52 | < 70 | > 3000 | ≤ 5.00 | 6.00 to 7.00 | 5 to 10 | < 5.52 |  |  |  |  |  |  |  |  | 
CNC(=O)c1ccc(NCC#Cc2nc3c(N[C@@H]4CCN(C)C4)cccn3c2SC(F)(F)F)c(OC)c1 [Example 242] |  |  |  |  |  |  |  |  | > 6.12 | 750 to 1500 | 80 to 90 | 5.10 to 5.30 | > 8.00 | 5 to 10 | > 6.12 | ≥ 10
COc1ccc(C(=O)NC[C@@H](C)O)cc1NCC#Cc1cc2c(N[C@@H]3CCN(C)C[C@@H]3F)nccn2c1SC(F)(F)F [Example 359] |  |  |  |  |  |  |  |  | > 6.12 | < 750 | > 90 | ≤ 5.00 | > 8.00 | ≥ 10 | > 6.12 | 
CN1CC[C@@H](Nc2cccn3c(CC(F)(F)F)c(C#CC(C)(C)O)nc23)[C@@H](F)C1 [Example 69, 4-(8-{[(3S,4R)-3-fluoro-1-methylpiperidin-4-yl]amino}-3-(2,2,2-trifluoroethyl)imidazo[1,2-a]pyridin-2-yl)-2-methylbut-3-yn-2-ol] | < 5.52 | < 70 | > 3000 | ≤ 5.00 | 6.00 to 7.00 | 5 to 10 | < 5.52 |  |  |  |  |  |  |  |  | 
CCNC(=O)c1ccc(OC)c(NCC#Cc2cc3c(N[C@@H]4CCN(C)C[C@@H]4F)nccn3c2SC(F)(F)F)c1 [Example 290] |  |  |  |  |  |  |  |  | > 6.12 | < 750 | > 90 | ≤ 5.00 | > 8.00 | ≥ 10 | > 6.12 | 
CNC(=O)c1ccc(OC)c(NCC#Cc2nn3c(N[C@@H]4CCN(C)C[C@@H]4F)cccc3c2SC(F)(F)F)c1 [Example 231] |  |  |  |  |  |  |  |  | > 6.12 | < 750 | 80 to 90 | 5.10 to 5.30 | > 8.00 | ≥ 10 | > 6.12 | ≥ 10
CNC(=O)c1ccc(OC2COC2)c(NCC#Cc2cc3c(N[C@@H]4CCN(C)C[C@@H]4F)nccn3c2SC(F)(F)F)c1 [Example 336] |  |  |  |  |  |  |  |  | > 6.12 | < 750 | > 90 | > 5.30 | > 8.00 | ≥ 10 | > 6.12 | 
